Experimental data from ChEMBL document CHEMBL6096727, “Structure-Based Rational Design and Evaluation of BET-Aurora Kinase Dual-Inhibitors for Treatment of Cancers” (J Med Chem, 2025).

Tests used:
[1] = target: Cyclin-dependent kinase 9 (Homo sapiens) (UniProt P50750); details: dose 100.0 nM
Description: Inhibition of CDK9 (unknown origin) using caliper substrate CTD3 at 100 nM by mobility shift assay relative to control

HCT-116 = assay: Antiproliferative activity against human HCT-116 cells incubated for 48 hrs by 3H-thymidine uptake assay; assay type: functional, cell-based
[2] = target: T1, Bromodomain-containing protein 2 (Homo sapiens, UniProt P25440); assay: Inhibition of BRD2 BD1 (unknown origin) incubated for 2 to 4 hrs under dark condition by FP assay
T1 sequence (P25440 whole entry): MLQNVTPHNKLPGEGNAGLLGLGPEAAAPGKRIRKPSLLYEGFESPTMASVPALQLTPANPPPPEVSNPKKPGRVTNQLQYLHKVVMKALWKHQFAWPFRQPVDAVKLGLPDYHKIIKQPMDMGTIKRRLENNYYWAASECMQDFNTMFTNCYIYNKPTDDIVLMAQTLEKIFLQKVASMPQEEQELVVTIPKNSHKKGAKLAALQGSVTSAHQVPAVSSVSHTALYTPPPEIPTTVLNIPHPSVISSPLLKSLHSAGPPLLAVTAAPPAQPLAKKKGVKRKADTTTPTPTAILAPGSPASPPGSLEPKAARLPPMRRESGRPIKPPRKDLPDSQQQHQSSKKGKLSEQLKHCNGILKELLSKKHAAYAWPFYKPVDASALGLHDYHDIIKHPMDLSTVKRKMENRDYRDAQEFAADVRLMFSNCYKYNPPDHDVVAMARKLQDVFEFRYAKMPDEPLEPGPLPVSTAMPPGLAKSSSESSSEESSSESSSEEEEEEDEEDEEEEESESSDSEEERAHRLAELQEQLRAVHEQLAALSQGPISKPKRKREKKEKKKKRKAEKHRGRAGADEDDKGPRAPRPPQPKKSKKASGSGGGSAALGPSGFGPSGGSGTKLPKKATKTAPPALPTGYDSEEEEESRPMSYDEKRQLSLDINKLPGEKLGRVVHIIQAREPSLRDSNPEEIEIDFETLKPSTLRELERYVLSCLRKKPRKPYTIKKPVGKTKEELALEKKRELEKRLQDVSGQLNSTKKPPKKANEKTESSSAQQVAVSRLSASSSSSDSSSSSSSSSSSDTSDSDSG

[3] = target: T1, Bromodomain-containing protein 2; assay: Inhibition of BRD2 BD2 (unknown origin) incubated for 2 to 4 hrs under dark condition by FP assay
[4] = target: Bromodomain-containing protein 4 (Homo sapiens, UniProt O60885); assay: Inhibition of BRD4 BD1 (unknown origin)

Chain of Cyclin-dependent kinase 9 (Homo sapiens) (P50750 whole entry): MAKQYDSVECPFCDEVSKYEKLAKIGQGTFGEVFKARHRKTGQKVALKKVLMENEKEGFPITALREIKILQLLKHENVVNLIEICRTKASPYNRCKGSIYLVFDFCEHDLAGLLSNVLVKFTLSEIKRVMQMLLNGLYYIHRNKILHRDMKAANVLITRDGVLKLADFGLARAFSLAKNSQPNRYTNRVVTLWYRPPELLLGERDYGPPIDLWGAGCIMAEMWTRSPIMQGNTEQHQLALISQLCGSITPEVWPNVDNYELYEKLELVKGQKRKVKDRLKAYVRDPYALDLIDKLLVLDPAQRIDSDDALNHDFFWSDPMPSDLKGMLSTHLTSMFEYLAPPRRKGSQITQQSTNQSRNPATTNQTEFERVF

Row | SMILES | inhibition [1] | other results
1 | Cc1cc(Nc2ccnc(Nc3ccc4c(c3)N(C(C)C)[C@H](C)C(=O)N4C)n2)n(-c2ccccc2)n1 | 5.3% | –
2 | CC(C)N1c2cc(Nc3nccc(-c4c[nH]nc4C4CCCC4)n3)ccc2N(C)C(=O)[C@H]1C | 62% | –
3 | Cc1c(-c2ccnc(Nc3cc(F)c4c(c3)N(C(C)C)[C@H](C)C(=O)N4C)n2)c(C2CC2)nn1C | -0.9% | –
4 | Cc1n[nH]c(C2CCC2)c1-c1ccnc(Nc2ccc3c(c2)N(C(C)C)[C@H](C)C(=O)N3C)n1 | 5.9% | –
5 | Cc1nn(C)cc1-c1ccnc(Nc2ccc3c(c2)N(C(C)C)[C@H](C)C(=O)N3C)n1 | 3.2% | –
6 | CC(C)N1c2cc(Nc3nccc(-c4c[nH]nc4-c4ccccc4)n3)ccc2N(C)C(=O)[C@H]1C | 23% | –
7 | Cc1cc(Nc2ccnc(Nc3ccc4c(c3)N(C(C)C)[C@H](C)C(=O)N4C)n2)n(C)n1 | -0.3% | –
8 | CC[C@@H]1C(=O)N(C)c2ccc(Nc3ncc(F)c(-c4c(C5CC5)nn(C)c4C)n3)cc2N1C(C)C | 19% | –
9 | Cc1c(-c2nc(Nc3ccc4c(c3)N(C(C)C)[C@H](C)C(=O)N4C)ncc2Cl)c(C2CC2)nn1C | 23% | –
10 | Cc1c(-c2ccnc(Nc3ccc4c(c3)N(C(C)C)[C@H](C)C(=O)N4C)n2)cnn1C | 25% | –
11 | Cc1c(-c2ccnc(Nc3ccc4c(c3)N(C(C)C)[C@H](C)C(=O)N4C)n2)c(C2CC2)nn1C | 6.5% | –
12 | CCn1nccc1-c1ccnc(Nc2ccc3c(c2)N(C(C)C)[C@H](C)C(=O)N3C)n1 | 4.7% | –
13 | CC[C@@H]1C(=O)N(C)c2ccc(Nc3nccc(-c4c(C5CC5)nn(C)c4C)n3)cc2N1C(C)C | 2.7% | –
14 | Cc1c(-c2nc(Nc3ccc4c(c3)N(C(C)C)[C@H](C)C(=O)N4C)ncc2F)c(C2CCC2)nn1C | 18% | –
15 | CC(C)N1c2cc(Nc3nccc(Nc4cc(C(C)(C)C)nn4C)n3)ccc2N(C)C(=O)[C@H]1C | 0% | –
16 | CC(C)N1c2cc(Nc3nccc(-c4ccn(C)n4)n3)ccc2N(C)C(=O)[C@H]1C | -1.4% | –
17 | CC(C)N1c2cc(Nc3nccc(Nc4cc(-c5ccccc5)nn4C)n3)ccc2N(C)C(=O)[C@H]1C | -1.5% | –
18 | Cc1cc(Nc2ccnc(Nc3ccc4c(c3)N(C(C)C)[C@H](C)C(=O)N4C)n2)n(C(C)(C)C)n1 | -1.5% | –
19 | CC(C)N1c2cc(Nc3nccc(-c4ccnn4C(C)C)n3)ccc2N(C)C(=O)[C@H]1C | 14% | –
20 | Cc1nn(C(C)C)cc1-c1ccnc(Nc2ccc3c(c2)N(C(C)C)[C@H](C)C(=O)N3C)n1 | 2.5% | –
21 | CC[C@@H]1C(=O)N(C)c2ccc(Nc3ncc(F)c(-c4c(C5CCC5)nn(C)c4C)n3)cc2N1C(C)C | 10% | –
22 | Cc1n[nH]c(C)c1-c1ccnc(Nc2ccc3c(c2)N(C(C)C)[C@H](C)C(=O)N3C)n1 | 5.8% | –
23 | Cc1c(-c2nc(Nc3ccc4c(c3)N(C(C)C)[C@H](C)C(=O)N4C)ncc2F)c(C2CCCC2)nn1C | 8.2% | –

Row | SMILES | inhibition [1] | other results
24 | Cc1sc2c(c1C)C(c1ccc(Cl)cc1)=N[C@@H](CC(=O)OC(C)(C)C)c1nnc(C)n1-2 | – | IC50 (HCT-116): 6150 nM
25 | Cc1c(-c2nc(Nc3ccc4c(c3)N(C(C)C)[C@H](C)C(=O)N4C)ncc2F)c(C2CC2)nn1C | 15% | IC50 [2]: 35 nM; IC50 [3]: 48 nM
26 | Cc1c(-c2ccnc(Nc3ccc4c(c3)N(C3CCC3)[C@H](C)C(=O)N4C)n2)c(C2CC2)nn1C | 9.1% | –
27 | CC(C)N1c2cc(Nc3nccc(Nc4cc(C5CC5)nn4C)n3)ccc2N(C)C(=O)[C@H]1C | 3.8% | –
28 | CCc1n[nH]c(C2CC2)c1-c1ccnc(Nc2ccc3c(c2)N(C(C)C)[C@H](C)C(=O)N3C)n1 | 5.9% | –
29 | CC(C)N1c2cc(Nc3nccc(-c4cc[nH]n4)n3)ccc2N(C)C(=O)[C@H]1C | 5.4% | –
30 | Cc1cnc(Nc2ccc3c(c2)N(C(C)C)[C@H](C)C(=O)N3C)nc1-c1c(C2CC2)nn(C)c1C | 0% | –
31 | Cc1n[nH]c(C2CC2)c1-c1ccnc(Nc2ccc3c(c2)N(C(C)C)[C@H](C)C(=O)N3C)n1 | 12% | –
32 | CC(C)N1c2cc(Nc3nccc(-c4ccnn4C)n3)ccc2N(C)C(=O)[C@H]1C | -1.3% | –
33 | CC(C)N1c2cc(Nc3nccc(-c4cn[nH]c4)n3)ccc2N(C)C(=O)[C@H]1C | 73% | –
34 | Cc1nn(C)c(C2CC2)c1-c1ccnc(Nc2ccc3c(c2)N(C(C)C)[C@H](C)C(=O)N3C)n1 | 3.4% | –
35 | CC(C)c1n[nH]cc1-c1ccnc(Nc2ccc3c(c2)N(C(C)C)[C@H](C)C(=O)N3C)n1 | 69% | –
36 | CC(C)N1c2cc(Nc3nccc(-c4c[nH]nc4C4CCCCC4)n3)ccc2N(C)C(=O)[C@H]1C | 56% | –
37 | Cc1c(-c2ccnc(Nc3ccc4c(c3)N(C3CCCC3)[C@H](C)C(=O)N4C)n2)c(C2CC2)nn1C | 4.6% | –
38 | CC[C@@H]1C(=O)N(C)c2ccc(Nc3ncc(F)c(-c4c(C5CCCC5)nn(C)c4C)n3)cc2N1C(C)C | 10% | –
39 | Cc1c(-c2ccnc(Nc3ccc4c(n3)N(C(C)C)[C@H](C)C(=O)N4C)n2)c(C2CC2)nn1C | 0.8% | –
40 | Cc1cc(-c2ccnc(Nc3ccc4c(c3)N(C(C)C)[C@H](C)C(=O)N4C)n2)n(C)n1 | -0.4% | –
41 | Cc1cc(Nc2ccnc(Nc3ccc4c(c3)N(C(C)C)[C@H](C)C(=O)N4C)n2)n(C(C)C)n1 | 0.5% | –
42 | CC(C)N1c2cc(Nc3nccc(Nc4cc(C(C)(C)C)n[nH]4)n3)ccc2N(C)C(=O)[C@H]1C | 45% | –
43 | Cc1n[nH]cc1-c1ccnc(Nc2ccc3c(c2)N(C(C)C)[C@H](C)C(=O)N3C)n1 | 53% | –
44 | Cc1nn(-c2ccccc2)cc1-c1ccnc(Nc2ccc3c(c2)N(C(C)C)[C@H](C)C(=O)N3C)n1 | 0.9% | –
45 | CCn1cc(-c2ccnc(Nc3ccc4c(c3)N(C(C)C)[C@H](C)C(=O)N4C)n2)c(C)n1 | 9.4% | –
46 | CC(C)N1c2cc(Nc3nccc(-c4ccccc4)n3)ccc2N(C)C(=O)C1C (stereo not drawn) | – | IC50 [4]: 193 nM
